Calls of active or inactive are those of the source.
Tests used:
[1] = target: T1, E3 ubiquitin-protein ligase XIAP (Homo sapiens, UniProt P98170); test: Counter Screen using XIAP-Bir3 for Chemical Antagonists of Bir1/2 domains of IAP-family anti-apoptotic proteins. [Related pubchem assays (depositor defined):AID1018, AID1449, AID1514, AID1638, AID1749, AID1750, AID488957, AID488963]
[2] = target: T1, E3 ubiquitin-protein ligase XIAP; test: XIAP antagonists, biochemical, IAP family, fluorescence polarization (AID 1018); assay type: functional
X-box-binding protein 1 = target: T2, X-box-binding protein 1 (Homo sapiens, UniProt P17861); assay type: functional, Cricetulus griseus;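 note: confirmatory dose-response counter-screen serving a CHOP assay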
T2 sequence (P17861 whole entry): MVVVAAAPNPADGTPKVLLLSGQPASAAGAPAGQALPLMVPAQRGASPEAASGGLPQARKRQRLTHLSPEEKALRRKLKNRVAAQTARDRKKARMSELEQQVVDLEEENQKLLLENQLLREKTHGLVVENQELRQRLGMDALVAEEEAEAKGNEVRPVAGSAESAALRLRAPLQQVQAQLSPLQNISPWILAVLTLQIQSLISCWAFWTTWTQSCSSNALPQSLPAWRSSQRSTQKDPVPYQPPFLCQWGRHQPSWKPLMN

[3] = target: T3, Heat shock factor protein 1 (Mus musculus, UniProt P38532); test: inhibition of MG132-induced HSE-luciferase signal, confirmation, cell-based, NIH3T3, luminescence, dose retest (AID 2382); assay type: functional;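 note: NIH3T3 fibroblasts with HSF1-driven luciferase reporter stressed by proteasome inhibitor MG132; luminescence from HSF1-driven luciferase expression after 8 hours of MG132 stress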
T3 sequence (P38532 whole entry): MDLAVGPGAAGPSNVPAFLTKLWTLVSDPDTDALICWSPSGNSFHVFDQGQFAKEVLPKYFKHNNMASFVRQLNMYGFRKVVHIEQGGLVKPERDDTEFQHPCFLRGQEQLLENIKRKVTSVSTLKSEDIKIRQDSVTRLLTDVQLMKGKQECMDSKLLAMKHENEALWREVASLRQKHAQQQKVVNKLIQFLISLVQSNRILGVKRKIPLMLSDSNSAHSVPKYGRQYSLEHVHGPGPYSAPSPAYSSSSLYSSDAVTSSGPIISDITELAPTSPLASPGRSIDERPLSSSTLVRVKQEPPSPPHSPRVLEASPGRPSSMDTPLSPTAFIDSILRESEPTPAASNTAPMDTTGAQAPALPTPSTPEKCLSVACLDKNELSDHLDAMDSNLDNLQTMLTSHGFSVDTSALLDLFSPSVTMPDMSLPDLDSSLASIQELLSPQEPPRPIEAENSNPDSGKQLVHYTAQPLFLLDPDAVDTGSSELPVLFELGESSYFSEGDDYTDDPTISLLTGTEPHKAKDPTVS

[4] = target: T4, Aryl hydrocarbon receptor (Homo sapiens, UniProt P35869); test: Luminescence-based cell-based high throughput dose response assay for activators of the Aryl Hydrocarbon Receptor (AHR). [Related pubchem assays: 2796 (Primary screen (AHR activators in singlicate)), 2845 (Confirmation screen (AHR activators in triplicate)), 434939 (Counterscreen (PXR activators in triplicate)), 2804 (Summary (AHR activators))]; assay type: ADME
T4 sequence (P35869 whole entry): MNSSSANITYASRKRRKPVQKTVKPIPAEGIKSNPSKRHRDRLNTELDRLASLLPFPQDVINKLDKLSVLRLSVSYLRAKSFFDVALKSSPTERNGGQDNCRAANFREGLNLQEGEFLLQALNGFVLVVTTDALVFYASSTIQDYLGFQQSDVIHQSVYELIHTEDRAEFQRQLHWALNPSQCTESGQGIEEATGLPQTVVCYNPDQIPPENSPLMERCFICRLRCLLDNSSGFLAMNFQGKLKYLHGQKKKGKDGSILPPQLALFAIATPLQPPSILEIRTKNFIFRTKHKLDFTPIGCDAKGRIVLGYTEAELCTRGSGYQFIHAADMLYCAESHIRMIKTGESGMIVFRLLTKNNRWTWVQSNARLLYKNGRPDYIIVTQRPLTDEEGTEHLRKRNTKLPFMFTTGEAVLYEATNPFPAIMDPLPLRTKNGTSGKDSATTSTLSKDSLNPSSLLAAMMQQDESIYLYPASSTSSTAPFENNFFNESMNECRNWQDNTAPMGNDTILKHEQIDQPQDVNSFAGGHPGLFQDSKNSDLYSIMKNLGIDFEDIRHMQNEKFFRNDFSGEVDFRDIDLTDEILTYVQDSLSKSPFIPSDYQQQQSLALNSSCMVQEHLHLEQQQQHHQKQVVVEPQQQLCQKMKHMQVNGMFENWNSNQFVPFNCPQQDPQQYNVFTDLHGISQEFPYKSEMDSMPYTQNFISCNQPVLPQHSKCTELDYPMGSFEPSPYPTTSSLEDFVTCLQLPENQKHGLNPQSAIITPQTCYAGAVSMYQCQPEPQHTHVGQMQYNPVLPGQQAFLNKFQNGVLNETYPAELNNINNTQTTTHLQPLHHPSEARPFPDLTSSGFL

Caspase-6 = target: T5, Caspase-6 (Homo sapiens, UniProt P55212); test: human caspase-6 inhibitors, dose response, biochemical, VEID-R110 fluorescence, cherry-pick (AID 720632)
T5 sequence (P55212 whole entry): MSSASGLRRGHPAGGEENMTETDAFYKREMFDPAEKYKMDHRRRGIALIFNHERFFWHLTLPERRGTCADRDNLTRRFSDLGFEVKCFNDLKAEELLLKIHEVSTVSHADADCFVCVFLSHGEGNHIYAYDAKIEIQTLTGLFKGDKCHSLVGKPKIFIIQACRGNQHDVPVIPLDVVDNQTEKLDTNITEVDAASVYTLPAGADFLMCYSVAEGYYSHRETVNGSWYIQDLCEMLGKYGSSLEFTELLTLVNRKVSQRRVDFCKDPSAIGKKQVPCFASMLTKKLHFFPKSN

[5] = tested on: Streptococcus sp. 'group A'; test: growth inhibition of control SK(-) GAS strain, dose response, counter-screen for streptokinase expression inhibitor project, luminescence, kanamycin, BacTiterGlo, confirmation (AID 1900); assay type: functional, organism-based
Streptococcus = test: Group A Streptococcus viability loss, dose response, counter-screen for streptokinase expression inhibitor project, luminescence, BacTiterGlo (AID 1915); assay type: functional, organism-based;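 note: potency for reduction of bacterial viability or growth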

T1 sequence (P98170 whole entry): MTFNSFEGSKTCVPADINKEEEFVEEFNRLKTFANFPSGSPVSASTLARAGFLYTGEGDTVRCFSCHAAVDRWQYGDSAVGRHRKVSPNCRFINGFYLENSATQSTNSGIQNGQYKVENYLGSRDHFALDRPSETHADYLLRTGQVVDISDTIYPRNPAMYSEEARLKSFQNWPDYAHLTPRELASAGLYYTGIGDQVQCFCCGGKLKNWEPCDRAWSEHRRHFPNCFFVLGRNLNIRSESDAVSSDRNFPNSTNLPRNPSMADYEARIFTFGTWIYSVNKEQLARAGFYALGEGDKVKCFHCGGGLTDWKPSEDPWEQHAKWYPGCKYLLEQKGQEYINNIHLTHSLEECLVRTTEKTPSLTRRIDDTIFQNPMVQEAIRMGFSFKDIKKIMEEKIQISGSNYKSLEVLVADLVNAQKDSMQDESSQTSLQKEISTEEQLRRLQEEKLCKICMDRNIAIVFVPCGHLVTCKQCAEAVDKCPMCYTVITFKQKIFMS

| Structure (SMILES) | IC50 [1] | IC50 [2] | EC50 [4] | further results |
| --- | --- | --- | --- | --- |
| Cc1cc(S(=O)(=O)N2CCN(Cc3ccccc3)CC2)c(C)s1 | > 100 µM (inactive) | > 100 µM (not active) |  |  |
| Cn1c(-c2cccc(OCc3ccccc3)c2)nc2c1c(=O)[nH]c(=O)n2Cc1ccccc1 |  |  |  | Absolute IC50 (XBP1) (X-box-binding protein 1): 10 µM |
| CC(C)CC(NC(=O)c1ccco1)C(=O)Nc1ccc2c(c1)OCCO2 (stereo unspecified) | > 100 µM (inactive) | > 100 µM (not active) |  | EC50 [3]: 11.3 µM (active) |
| COC(=O)c1ccccc1NC(=O)Cn1ccnc1 |  |  | 2.18 µM (active) |  |
| CN1CCN(c2ccccc2NC(=O)c2ccc(-c3cccc([N+](=O)[O-])c3)o2)CC1 | > 100 µM (inactive) | > 100 µM (not active) |  |  |
| CCCC(=O)Nc1nn(C)c2nc3cc(C)ccc3cc12 |  |  | 0.458 µM (active) |  |
| O=C(O)COn1c(-c2ccccc2)nc2ccc([N+](=O)[O-])cc21 |  |  | 4.82 µM (active) | AC50 (Caspase-6): 5.23 µM (active) |
| CC[C@H]1OC(=O)[C@H](C)[C@@H](O[C@H]2C[C@@](C)(OC)[C@@H](O)[C@H](C)O2)[C@H](C)[C@@H](O[C@@H]2O[C@H](C)C[C@H](N(C)C)[C@H]2O)[C@](C)(O)C[C@@H](C)[C@@H]2N[C@@H](COCCOC)O[C@H]([C@H]2C)[C@]1(C)O [DIRITHROMYCIN] | > 100 µM (inactive) | > 100 µM (not active) |  | EC50 [5]: < 0.06 µM (active); EC50 (Streptococcus): 0.117 µM (active) |

Source: ChEMBL document CHEMBL1201862, “PubChem BioAssay data set” (2004)
